Results published in article PMC2806602 (The Journal of neuroscience : the official journal of the …, 2009).
Changes are numbered by the printed parent chain.

Key:
[1] = target: T1, GluRδ2^Wt C811S (Rattus norvegicus, UniProt Q63226, C811S); assay: Two-electrode voltage-clamp recordings in Xenopus oocytes, GluRδ2^Wt C811S; assay type: cell-based; settings: data not shown
T1 sequence (Q63226 24-1007 C811S): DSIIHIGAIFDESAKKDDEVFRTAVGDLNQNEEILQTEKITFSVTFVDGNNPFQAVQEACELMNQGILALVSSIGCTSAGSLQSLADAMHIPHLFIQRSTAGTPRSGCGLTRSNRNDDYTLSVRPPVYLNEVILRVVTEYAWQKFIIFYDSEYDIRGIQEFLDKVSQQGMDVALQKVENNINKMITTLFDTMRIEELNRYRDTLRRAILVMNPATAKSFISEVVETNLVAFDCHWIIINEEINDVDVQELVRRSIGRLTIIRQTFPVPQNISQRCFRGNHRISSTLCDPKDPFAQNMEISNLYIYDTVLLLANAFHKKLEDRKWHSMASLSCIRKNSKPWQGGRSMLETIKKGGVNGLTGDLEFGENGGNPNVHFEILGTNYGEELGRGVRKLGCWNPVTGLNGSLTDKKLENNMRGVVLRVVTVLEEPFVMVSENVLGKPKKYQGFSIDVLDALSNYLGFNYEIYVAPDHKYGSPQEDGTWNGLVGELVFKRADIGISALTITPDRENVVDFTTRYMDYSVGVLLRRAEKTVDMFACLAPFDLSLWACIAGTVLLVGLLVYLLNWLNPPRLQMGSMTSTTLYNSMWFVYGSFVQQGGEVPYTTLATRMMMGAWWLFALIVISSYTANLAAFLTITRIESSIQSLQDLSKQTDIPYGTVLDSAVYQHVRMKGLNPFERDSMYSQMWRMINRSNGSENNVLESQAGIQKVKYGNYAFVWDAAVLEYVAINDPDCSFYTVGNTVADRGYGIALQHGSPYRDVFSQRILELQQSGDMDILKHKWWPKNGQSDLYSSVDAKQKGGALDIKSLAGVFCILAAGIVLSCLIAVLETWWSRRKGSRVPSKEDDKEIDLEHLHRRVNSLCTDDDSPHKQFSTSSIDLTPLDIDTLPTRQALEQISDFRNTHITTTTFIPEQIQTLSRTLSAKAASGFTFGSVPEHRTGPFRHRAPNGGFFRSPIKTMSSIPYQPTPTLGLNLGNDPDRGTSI

[2] = target: T2, GluRδ2^Wt P528C+L789C+C811S (Rattus norvegicus, UniProt Q63226, C811S/L789C/P528C); assay type: cell-based; settings: data not shown
T2 sequence (Q63226 24-1007 P528C/L789C/C811S): T1 sequence (Q63226 24-1007 C811S) with P505C, L766C

[3] = target: T3, GluRδ2^Wt (Rattus norvegicus, UniProt Q63226); settings: ref Naur et al., 2007; cited from earlier work
T3 sequence (Q63226 24-1007): T1 sequence (Q63226 24-1007 C811S) with S788C

For `N[C@H](CO)C(=O)O` [D-serine], the “response to D-serine” value [1] is given as “Neither the C811S mutation nor the triple P528C+L789C+C811S mutation resulted in measurable responses”, the “response to D-serine” value [2] is given as “Neither the C811S mutation nor the triple P528C+L789C+C811S mutation resulted in measurable responses” and the “activation of currents at recombinant GluRδ2^Wt by D-serine” value [3] is given as “fails to activate currents”.
